From US9980943B2, “Methods of treating muscular dystrophy” (BOARD OF REGENTS OF THE NEVADA SYSTEM OF HIGHER EDUCATION, …, priority 2013, dated 2018)
Where two headings read alike, the source gives them in different places.

Tested on: α7 integrin (LacZ reporter in α7LacZ+/− myoblasts)
Assay: qHTS of the LOPAC library and MLSMR (online screen, α7LacZ+/− myoblasts)
Settings: for activation at 0.307 µM / activation at 1.53 µM / activation at 7.66 µM / activation at 38.3 µM / Emax / EC50: Mus musculus, Myoblast; for activation at 0.307 µM: read-out: Activity at 0.307 uM [%] **; for activation at 1.53 µM: read-out: Activity at 1.530 uM [%] **; for activation at 7.66 µM: read-out: Activity at 7.660 uM [%] **; for activation at 38.3 µM: read-out: Activity at 38.30uM [%] **; for EC50: read-out: Fit LogAC50 (converted)
[1] = 48 h, read-out: Fit Infinite Activity [%]

Row | Compound | activation at 0.307 µM (48 h) [%] | activation at 1.53 µM (48 h) [%] | activation at 7.66 µM (48 h) [%] | activation at 38.3 µM (48 h) [%] | Emax [1] [%] | EC50 [µM] | Emax (read-out: Max Response [%]) [%] | Score | Curve Description
1 | CCNC(=O)CSc1nc(-c2ccc(F)cc2)cs1 [Compound 61] | -0.123 | 25.8 | 82.4 | 126 | 136 | 5.01 | 126 | – | –
2 | CCS(=O)(=O)N1CCN(c2ccc([N+](=O)[O-])c(NCC3CCCO3)c2)CC1 (stereo not shown) [Compound 204] | 0.881 | 0.157 | 20.1 | 70.3 | 70.8 | 10 | 70.3 | – | –
3 | O=Cc1cn(Cc2ccc(F)cc2Cl)c2ccccc12 [Compound 209] | 13 | 10.6 | 18.6 | 139 | 142 | – | 139 | – | –
4 | NS(=O)(=O)c1ccc(NC(=O)c2ccc(CNS(=O)(=O)c3cc(C(F)(F)F)ccc3Cl)cc2)cc1 [Compound 207] | 0.545 | 0 | 25.5 | 73.3 | 75.5 | 10 | 73.3 | – | –
5 | O=C(O)c1cc(/N=C/c2c(O)oc3ccccc3c2=O)ccc1O [Compound 48] | -32 | -23.3 | 76.6 | 165 | 179 | 7.08 | – | – | –
6 | NS(=O)(=O)c1ccc(NC(=O)Nc2ccc(Cl)cc2)cc1 [Compound 202] | – | – | – | – | – | – | – | 42 | –
7 | COc1cc(/C=C2/C(=N)N3C(SC)=NSC3=NC2=O)ccc1OC(=O)c1ccco1 [Compound 30] | -18.3 | -9.07 | 55.5 | 73.4 | 73.6 | 3.98 | – | – | –
8 | O=C(NCCc1ccc(F)cc1)N[C@@H](Cc1ccccc1)C(=O)O [Compound 165] | -20.5 | -20.4 | 0 | 108 | 109 | – | 108 | – | –
9 | O=C(CCc1ccccc1)c1nnc(-c2ccccc2)o1 [Compound 183] | 0 | 2.03 | 24.4 | 99.5 | 99.7 | 10 | 99.5 | – | –
10 | CCC(CC)C(=O)Nc1c(C(=O)N2CCN(c3ccccc3)CC2)oc2ccccc12 [Compound 73] | 13.5 | 18.6 | 35.7 | 185 | 187 | 12.6 | 185 | – | –
11 | CC(C)CC1NC(=O)N(CC(=O)N2c3ccccc3NC(=O)C2(C)C)C1=O (stereo not shown) [Compound 21] | 2.86 | 0 | 75.6 | 93.3 | 93.5 | 5.62 | – | – | –
12 | COc1ccc(Nc2ncnc3ccc(Br)cc23)cc1OC [Compound 75] | 28.1 | 40 | 79.7 | 95.9 | 98.4 | 3.98 | 95.9 | – | –
13 | O=C(NC(=S)NCCC1=CCCCC1)c1ccc(Br)o1 [Compound 205] | -39.4 | -31.7 | 12.1 | 50.2 | 57.8 | – | 50.2 | – | –
14 | Cc1nn(C(C)(C)C)c(C)c1/C=N/OC(=O)Nc1ccc(Cl)c(Cl)c1 [Compound 32] | -28.1 | -9.46 | 51 | 59.8 | 60.2 | 2.82 | – | – | Complete
15 | COc1cc(Cl)cc(CN2CCC(CCC(=O)NC3CC3)CC2)c1OC [Compound 167] | -38.2 | -33.5 | 9.56 | 44 | 48.6 | – | 44 | – | –
16 | CCCCNC(=O)CSc1nnc(Cc2ccc(Cl)c(Cl)c2)c(O)n1 [Compound 34] | 9.41 | 43.8 | 74.3 | 75.4 | 76.4 | 1.41 | – | – | –
17 | C/N=c1\scc(-c2ccc(OC)cc2)n1/N=C(\C)c1cccnc1 [Compound 118] | -8.12 | 2.29 | 48.7 | 73.6 | 74.9 | 5.01 | 73.6 | – | –
18 | CCCN1C2CCCC1CC(NC(=O)c1cccc([N+](=O)[O-])c1)C2 (stereo not shown) [Compound 164] | 1.16 | 0.0123 | 22 | 91.6 | 91.8 | 10 | 91.6 | 42 | Partial
19 | O=C(COC(=O)c1cc2ccccc2oc1=O)Nc1ccc(F)cc1F [Compound 60] | -11 | 4.45 | 78.3 | 115 | 116 | 4.47 | 115 | – | –
20 | COCCSc1ccccc1C(=O)Nc1cc(C)cc(C)c1 [Compound 22] | 0 | 0 | 78.3 | 82.9 | 83.1 | 4.47 | – | – | –
21 | Cc1cc(C)nc(NC(=O)c2ccc(Cl)cc2Cl)n1 [Compound 198] | 2.39 | 0 | 17.6 | 79.1 | 79.2 | 10 | 79.1 | – | –
22 | Cn1ccc(C(=O)Nc2cccnc2Cl)n1 [Compound 140] | -2.76 | -4.96 | 22.8 | 76 | 77.9 | 10 | 76 | – | –
23 | COc1ccc(C(=O)N/C(=C/c2cccnc2)C(=O)N2CCN(C)CC2)cc1OC [Compound 92] | 2.57 | 13.3 | 54.9 | 75 | 77 | 4.47 | 75 | – | –
24 | O=[N+]([O-])c1ccc(N2CCN(c3ccccc3F)CC2)nc1 [Compound 49] | 2.3 | 15.5 | 102 | 151 | 154 | 5.62 | – | – | –
25 | Cc1cccn2c(=O)c3cc(C(=O)NC4CCCCC4)n(C)c3nc12 [Compound 40] | -13.7 | 5.58 | 25.2 | 427 | 433 | 14.1 | – | – | –
26 | CCc1c(C2(O)CCCCC2)[nH]c2ncccc12 [Compound 135] | -28.5 | -29.4 | -11.2 | 62 | 61.8 | 10 | 62 | – | –
27 | COc1ccc(N2CCN(CCC3Oc4cc([N+](=O)[O-])ccc4NC3=O)CC2)cc1 (stereo not shown) [Compound 194] | -2.43 | 0 | 30.6 | 68 | 73.9 | 8.91 | 68 | 42 | –
